Reference: patent US10508103B2, “Benzimidazole-linked indole compound acting as novel divalent IAP antagonist” (MEDSHINE DISCOVERY INC., priority 2016, dated 2019)

Experiments:
[1] = target: cIAP2-BIR3 Protein (Homo sapiens (Human), UniProt Q13489); test: Fluorescence polarization affinity of compounds to cIAP2-BIR3; format: binding; settings: cIAP2-BIR3 60 nM; 5 nM ARPFAQ-K(5-FAM)-NH2 probe; FP; pH 7.5; read-out: affinity to target protein in vitro, cIAP2-BIR3 Protein (IC50)
Procedure: (§1) Biological Assay 1: affinity of compounds to cIAP1-BIR3, cIAP2-BIR3, XIAP-BIR3 • 1) Affinity of compounds listed in table to cIAP1-BIR3, Ciap2-BIR3, XIAP-BIR3 was tested referring to Nikolovska-Colesks, Z. et.Al. (Analytical Biochemistry,2004,232:261-273) to obtain IC50 value. Generally speaking, in 10-dose IC50 mode, IAP antagonists with different concentrations were diluted in series by 3-fold and fluorescence labelled ARPFAQ-K (5-FAM)-NH2 peptide was used as probe to test compounds binding to protein BIR3 domain. • 2) Test condition: cIAP1-BIR3: 20 nM; cIAP2-BIR3: 60 nM; XIAP-BIR3: 30 nM; 5 nM probe in 100 mM tripotassium phosphate, pH 7.5, 0.1 mg/mL BSA, 0.005% Triton X100 and 0.5% DMSO. • 3) Test procedure: compounds were added into protein with different concentrations by using ECHO (LabCyte), and then the mixture was preincubated for 15 min. The probe was added and the final concentration was 5 nM. After incubating for 60 min, FP was tested and mP was calculated. Experiment results were list in table 1.

[2] = target: XIAP-BIR3 Protein (Homo sapiens (Human), UniProt P98170); test: Fluorescence polarization affinity of compounds to XIAP-BIR3; format: binding; settings: XIAP-BIR3 30 nM; 5 nM ARPFAQ-K(5-FAM)-NH2 probe; FP; pH 7.5; read-out: affinity to target protein in vitro, XIAP-BIR3 Protein (IC50)
Procedure: as §1

[3] = system: NF-κB Luciferase Reporter Hela cells; test: TNF-α inducing NF-κB reporter; format: cell-based; settings: Homo sapiens, 6 h, Bright-Glo luciferase
Procedure: Biological Assay 2: TNF-α inducing NF-κB reporter
• 1) tested compounds were added into DMSO to give parent liquor (10 mM); • 2) reference compound Birinapant (32 μL, 10 mM) was added into DMSO (128 μL) to give a solution (2 mM); • 3) 0.5 μL reference compound Birinapant (2 mM) and tested compounds (10 mM) were taken by Echo and added into Greiner 96 well black cell culture plate respectively. The initial concentration of the reference compound and tested compound was 10 μM and 50 μM, respectively. Then, the reference compound and tested compounds were diluted at 9 points in series by 5-fold; and every plate was repeated for 3 times. • 4) the reference compound WXFL2012A001 (Birinapant) (final concentration: 10 μM) as HPE and DMSO (final concentration: 0.5%) as ZPE.
• 5) purpose of the three repeated plates: the first plate was used for testing compounds' activity;
the second plate was used for testing cytotoxicity of the compounds; the third plate was used for solution replacement of the first and second plates: mixing inducer TNF-α and medium containing 0.1% FBS, and then being added to the third plate and the resultant mixture was transferred to the first plate where supernatants had been removed.
• 1) removing medium in NF-iBLuciferase Reporter Hela cell culture flask and washing cell once with PBS (10 mL) • 2) adding 0.25% pancreatin (3 mL) to T150 cell culture flask, and placinginto cell incubator (37° C., 5%CO2) and dissociating cell for 3 min, and then medium (10 mL) was added to end dissociation and blowing cells with electric pipette until cells were dispersed into single cell. • 3) Calculating cell density with cell counter Countstar • 4) Adjusting NF-κB Luciferase Reporter Hela density with medium to 2.0×10^5 cells/mL • 5) Adding cells to two Greiner 96 well black cell culture plates containing compounds, (100 μL per well (2.0×10^4 cells/well)), one plate was used for testing compounds' activity, another was used for testing cytotoxicity of the compounds. • 6) Placing cell culture plates into cell incubator (37° C., 5%CO2) and incubatingfor 24 h Second Day TNF-α Inducing • 1) TNF-α (100 μg/mL) was diluted into 20 ng/mL with 0.1% FBS medium and transferredto the third plate with 100 μL per well • 2) Removing medium of the first 96 well black cell culture plate (compound activity testing plate) after 24 h, replacing with fresh medium containing the compound and 20 ng/mL TNF-α in the third plate • 3) Placing cell culture plate into cell incubator (37° C., 5% CO2) and incubatingfor 6 h • 4) after 6 h, compound's activity in the first plate was tested according to Bright-Glo (Promega) manual method, luciferase signal in each well was tested by Envision plate reader • 5) compound's cytotoxicity in the second plate was tested according to ATPlite 1Step (Perkin Elmer) manual method, luciferase signal in each well was tested by Envision plate reader • 6) analyzing with software to obtain EC50 of compound.

[4] = target: cIAP1-BIR3 Protein (Homo sapiens (Human), UniProt Q13490); test: Fluorescence polarization affinity of compounds to cIAP1-BIR3; format: binding; settings: cIAP1-BIR3 20 nM; 5 nM ARPFAQ-K(5-FAM)-NH2 probe; FP; pH 7.5; read-out: affinity to target protein in vitro, cIAP1-BIR3 Protein (IC50)
Procedure: as §1

[5] = Table 3, 20 ng/mL TNF-α, values given as ranges
[6] = Table 4, 20 ng/mL TNF-α, exact values with control Birinapant

cIAP2-BIR3 Protein, sequence (Q13489 238-349): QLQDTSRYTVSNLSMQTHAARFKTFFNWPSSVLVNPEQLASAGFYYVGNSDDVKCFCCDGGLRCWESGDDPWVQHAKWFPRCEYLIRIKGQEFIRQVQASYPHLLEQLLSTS
cIAP1-BIR3 Protein, sequence (Q13490 253-363): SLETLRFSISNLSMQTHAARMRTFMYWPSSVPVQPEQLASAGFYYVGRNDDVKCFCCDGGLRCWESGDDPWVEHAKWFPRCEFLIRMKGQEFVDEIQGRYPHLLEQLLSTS
XIAP-BIR3 Protein, sequence (P98170 241-356): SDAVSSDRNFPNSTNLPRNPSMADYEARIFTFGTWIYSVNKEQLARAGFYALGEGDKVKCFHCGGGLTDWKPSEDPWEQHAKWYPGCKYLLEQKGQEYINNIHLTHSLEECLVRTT

Row | SMILES | IC50 [1] [nM] | IC50 [2] [nM] | EC50 [3, 5] [nM] | IC50 [4] [nM] | EC50 [3, 6] [nM]
1 | CC[C@H](NC(=O)[C@H](C)NC)C(=O)N1C[C@@H](F)C[C@H]1Cc1c(-c2nc3cc(F)ccc3n2C[C@@H]2C[C@H](F)CN2C(=O)[C@H](CC)NC(=O)[C@H](C)NC)[nH]c2cc(F)ccc12 [Embodiment 13] | 10 to 100 | 10 to 100 | > 100 | 10 to 100 | 
2 | CN[C@@H](C)C(=O)N[C@H](C(=O)N1C[C@@H](F)C[C@H]1Cc1c(-c2nc3cc(F)ccc3n2C[C@@H]2C[C@H](F)CN2C(=O)[C@@H](NC(=O)[C@H](C)NC)C2CC2)[nH]c2cc(F)ccc12)C1CC1 [Embodiment 14] | 10 to 100 | 10 to 100 | 10 to 100 | < 10 | 
3 | CN[C@@H](C)C(=O)N[C@H](C(=O)N1C[C@@H](F)C[C@H]1Cc1c(-c2nc3cc(F)ccc3n2C[C@@H]2C[C@H](F)CN2C(=O)[C@@H](NC(=O)[C@H](C)NC)C(C)C)[nH]c2cc(F)ccc12)C(C)C [Embodiment 16] | 10 to 100 | 10 to 100 | < 10 | < 10 | 0.66
4 | CN[C@@H](C)C(=O)N[C@H](C(=O)N1C[C@@H](F)C[C@H]1Cc1c(-c2nc3cc(F)ccc3n2C[C@@H]2C[C@H](F)CN2C(=O)[C@@H](NC(=O)[C@H](C)NC)C2CCC2)[nH]c2cc(F)ccc12)C1CCC1 [Embodiment 17] | 10 to 100 | < 10 | < 10 | < 10 | 
5 | CC[C@H](NC(=O)[C@H](C)NC)C(=O)N1C[C@@H](F)C[C@H]1Cc1c(-c2nc3cc(F)ccc3n2C[C@@H]2C[C@H](F)CN2C(=O)[C@@H](NC(=O)[C@H](C)NC)C(C)C)[nH]c2cc(F)ccc12 [Embodiment 18] | 10 to 100 | 10 to 100 | < 10 | < 10 | 6.05
6 | CC[C@H](NC(=O)[C@H](C)NC)C(=O)N1C[C@@H](F)C[C@H]1Cc1c(-c2nc3cc(F)ccc3n2C[C@@H]2C[C@H](F)CN2C(=O)[C@@H](NC(=O)[C@H](C)NC)C(C)(C)C)[nH]c2cc(F)ccc12 [Embodiment 19] | 10 to 100 | 10 to 100 | < 10 | < 10 | 
7 | CC[C@H](NC(=O)[C@H](C)NC)C(=O)N1C[C@@H](F)C[C@H]1Cc1c(-c2nc3cc(F)ccc3n2C[C@@H]2C[C@H](F)CN2C(=O)[C@@H](NC(=O)[C@H](C)NC)C2CCCCC2)[nH]c2cc(F)ccc12 [Embodiment 20] | 10 to 100 | 10 to 100 | < 10 | < 10 | 
8 | CN[C@@H](C)C(=O)N[C@H](C(=O)N1C[C@@H](F)C[C@H]1Cc1c(-c2nc3cc(F)ccc3n2C[C@@H]2C[C@H](F)CN2C(=O)[C@@H](NC(=O)[C@H](C)NC)C2CC2)[nH]c2cc(F)ccc12)C(C)C [Embodiment 21] | 10 to 100 | 10 to 100 | 10 to 100 | < 10 | 
9 | CN[C@@H](C)C(=O)N[C@H](C(=O)N1C[C@@H](F)C[C@H]1Cn1c(-c2[nH]c3cc(F)ccc3c2C[C@@H]2C[C@H](F)CN2C(=O)[C@@H](NC(=O)[C@H](C)NC)C(C)(C)C)nc2cc(F)ccc21)C1CC1 [Embodiment 22] | 10 to 100 | 10 to 100 | < 10 | < 10 | 
